Patent publication US20080207578A1, “METHOD OF INDUCING APOPTOSIS IN CANCER TREATMENT BY USING CUCURBITACINS” (priority 2006, published 2008)

Legend:
[1] = system: 59 human cancer cell lines; assay: Sulforhodamine B (SRB) growth inhibition assay, 59-NCI Cancer Cell Line Panel; format: cell-based; conditions: 0.488 to 4000 nM, 48 hours
Description: (§1) Human cancer cell lines from the 59-NCl Cancer Cell Line Panel including leukemia, melanoma and cancers of breast, brain, colon, lung, ovary, prostate and kidney, were purchased from the National Institute of Cancer (USA). The growth inhibition (GI50) of these cell lines treated with cucurbitacin B and cucurbitacin D in various concentrations was investigated.
(§2) 59 human cancer cell lines were maintained in RPMI 1640 (Invitrogen Life Technologies, Calif., USA) supplemented with 5% Fetal Bovine Serum, 2 mM L-glutamine and 1% Penicillin/Streptomycin (Invitrogen Life Technologies) at 37° C. with 5% CO2. All chemicals were purchased from Sigma (St. Louis, Mo., USA) unless specified otherwise.
(§3) Sulforhodamine B (SRB) assay was applied to determine the cytostatic effect of cucurbitacin B and cucurbitacin D. SRB is a dye which binds to cellular proteins and will be dissolved in base. The biomass of total protein can be measured at 520 nm using a plate reader.
(§4) Cells were inoculated into 96-well microtiter plates including “Time zero” (Tz) plates in 100 μl at cell concentrations from 5000 to 40,000 cells per well according to NCI guideline. The cells were incubated at 37° C. with 5% CO2 for 24 hours. […] Bound SRB was solubilized with 100-200 ul per well of 10 mM trizma base and absorbance was measured at a wavelength of 520 nm. The percentage of growth inhibition was calculated as follows: […]

melanoma cell lines = assay: SRB growth inhibition assay, melanoma group; format: cell-based, human; conditions: most sensitive type to cucurbitacin D, 48 hours
Description: as §1, §2, §3, §4

[2] = system: human cancer cell lines (18 selected from the 59-NCI panel); assay: Cell cycle analysis by PI flow cytometry, 18 selected cell lines; format: cell-based; conditions: GI50, 1/2 GI50 and 1/4 GI50 of particular cell line, 48 hours
SF-295 CNS cell line = assay: Cell cycle analysis by PI flow cytometry, SF-295; format: cell-based, human; conditions: SF-295, 48 hours
[3] = system: human cancer cell lines (18 selected from the 59-NCI panel); assay: Annexin V-FITC/propidium iodine flow cytometric apoptosis assay, 18 selected cell lines; format: cell-based; conditions: 48 hours; for cell lines in which apoptosis was induced: GI50, 1/2 GI50 and 1/4 GI50 of particular cell line; for dose dependence of apoptosis induction (in words): three concentrations
Protocol: Human cancer cell lines from the 59-NCI Cancer Cell Line Panel including leukemia, melanoma and cancers of breast, brain, colon, lung, ovary, prostate and kidney were purchased from the National Institute of Cancer. […] They were treated with cucurbitacin B and cucurbitacin D at three different concentrations to elucidate their ability to induce any changes in cell cycle.
Cancer cell lines were maintained in RPMI 1640 supplemented with 5% Fetal Bovine Serum, 2 mM L-glutamine and 1% Penicillin/Streptomycin at 37° C. with 5% CO2. All chemicals were purchased from Sigma unless specified otherwise.
Cells were inoculated into tissue culture flask at cell concentrations from 50000 to 400,000 cells/ml according to the NCl guideline. The cells were incubated at 37° C. with 5% CO2 for 24 hours. Cucurbitacin B and cucurbitacin D were added to the cells of final concentrations ranging from 6 to 350 nM (GI50, ½ GI50 and ¼ GI50 of particular cell line) for 48 hours at 37° C. with 5% CO2. Cells ([…]) were then harvested and stained with 5 μl Annexin V-FITC and 10 μl propidium iodine (Becton Dickinson, Calif., USA) for 15 minutes at room temperature. Ten thousands events were collected by the FACScaliber and the percentage of different cell populations were analyzed by the CellQuest™ software (Becton Dickinson).

[4] = system: PARP in HL 60 human leukemia cells; assay: Western blot of PARP cleavage in HL60 cells; format: cell-based
Protocol: (§5) Control cells, as well as cells treated with cucurbitacin B or cucurbitacin D, were harvested and collected by centrifugation. Whole cell extracts were then prepared by lysing the cells using 4% sodium dodecyl sulfate (SDS) gel sample buffer. Cell extracts were boiled for 10 min and chilled on ice, subjected to 12% SDS-polyacrylamide gel electrophoresis, and transferred to a PVDF membrane. Each membrane was cut into to two pieces with one piece incubated at 4^˜ overnight with antibodies against cell cycle signaling proteins, such as ERK, phosphorlated-ERK, p38, phosphorlated-p38, Cyclin E, Retinoblastoma, phosphalated-Retinoblastoma and c-myc, and apoptotic protein (PARP). β-actin was used as a control for protein loading. All antibodies were obtained from Cell signaling Technologies (USA). Then membranes were incubated at 37^˜ for 1 h with secondary antibody conjugated with peroxidase, and the signal was detected using chemiluminescence detection reagent. The relative protein level was calculated as the ratio of the optical density of the protein of interest to that of β-actin.

[5] = system: phosphorylated-ERK, cyclin E, phosphorylated-Rb, c-myc in HL60 cells; assay: Western blot of MAPK / cell cycle signaling proteins in HL60 cells; format: cell-based, human
Protocol: as §5

[6] = system: prostate cancer cell lines; assay: SRB growth inhibition assay, prostate cancer group; format: cell-based, human; conditions: most sensitive type to cucurbitacin B, 48 hours
Description: as §1, §2, §3, §4

[7] = system: HL60 (TB) leukemia cell line; assay: Cell cycle analysis by PI flow cytometry, HL60 (TB); format: cell-based, human; conditions: 48 hours

## CC(C)(O)/C=C/C(=O)[C@](C)(O)[C@H]1[C@H](O)C[C@@]2(C)[C@@H]3CC=C4[C@@H](C[C@H](O)C(=O)C4(C)C)[C@]3(C)C(=O)C[C@]12C [cucurbitacin D]
[1]
  growth inhibition of 59 cancer cell lines (in words): inhibited the growth of 59 cancer cell lines dose-dependently
Melanoma cell lines
  GI50: 0.06 µM
[2]
  cell lines arrested in G2/M: 9 out of 18
SF-295 CNS cell line
  effect on cell cycle (in words): G2/M arrest and endoreduplication
[3]
  cell lines in which apoptosis was induced: 11 out of 18
  dose dependence of apoptosis induction (in words): induced apoptosis in a dose-dependent manner
[4]
  PARP (apoptosis marker) in western blot (in words): cleavage of PARP
[5]
  ERK (in words): ERK activation
  c-myc (in words): down-regulation of c-myc
  cyclin E (in words): cyclin E down-regulation
  retinoblastoma phosphorylation (in words): inhibition of retinoblastoma's phosphorylation

## CC(=O)OC(C)(C)/C=C/C(=O)[C@](C)(O)[C@H]1[C@H](O)C[C@@]2(C)[C@@H]3CC=C4[C@H](C[C@H](O)C(=O)C4(C)C)[C@]3(C)C(=O)C[C@]12C [cucurbitacin B]
[1]
  growth inhibition of 59 cancer cell lines (in words): inhibited the growth of 59 cancer cell lines dose-dependently
[6]
  GI50: 0.017 µM
[2]
  cell lines arrested in G2/M: 6 out of 18
[7]
  effect on cell cycle (in words): G2/M arrest and endoreduplication
[3]
  cell lines in which apoptosis was induced: 9 out of 18
  dose dependence of apoptosis induction (in words): induced apoptosis in a dose-dependent manner
[4]
  PARP (apoptosis marker) in western blot (in words): cleavage of PARP
[5]
  ERK (in words): ERK activation
  c-myc (in words): down-regulation of c-myc
  cyclin E (in words): cyclin E down-regulation
  retinoblastoma phosphorylation (in words): inhibition of retinoblastoma's phosphorylation
